Measured values from DBAASP.
In brackets after ≈: the same amount, converted by molar mass.

Experiments:
Assay in all cases: ≥ marks a high value that may be exact or a test limit, other limits are often not marked, values filed in µg/mL are converted to µM
Escherichia coli K-12 = tested on: Escherichia coli K-12
[1] = tested on: Klebsiella pneumoniae Q14-0095
[2] = tested on: Acinetobacter baumannii Q12-0809
[3] = tested on: Listeria monocytogenes NCTC 11994
[4] = tested on: Staphylococcus aureus Q14-0325
[5] = tested on: Acinetobacter baumannii Q13-0717
[6] = tested on: Staphylococcus aureus Q14-0320
[7] = tested on: Pseudomonas aeruginosa Q14-0208
[8] = tested on: Staphylococcus aureus MRSA-15
Campylobacter jejuni = tested on: Campylobacter jejuni
[9] = tested on: Enterococcus faecalis JH-2-2
[10] = tested on: Pseudomonas aeruginosa ATCC 27853
[11] = tested on: Staphylococcus aureus ATCC 29213
[12] = tested on: Pseudomonas aeruginosa Q14-0890
[13] = tested on: Staphylococcus aureus RN4220
[14] = tested on: Acinetobacter baumannii Q12-0867
[15] = tested on: Klebsiella pneumoniae NCTC 13442
[16] = tested on: Pseudomonas aeruginosa PAO1
[17] = tested on: Campylobacter jejuni NCTC 11351
[18] = tested on: Salmonella typhimurium SL1344
Acinetobacter baumannii = tested on: Acinetobacter baumannii
[19] = tested on: Klebsiella pneumoniae ATCC 700603
Escherichia coli = tested on: Escherichia coli
[20] = tested on: Staphylococcus aureus NCTC 12493
[21] = tested on: Klebsiella pneumoniae Q14-0146
[22] = tested on: Staphylococcus aureus JCM 2874
Bacillus cereus JCM 2152 = tested on: Bacillus cereus JCM 2152
[23] = tested on: Candida albicans JCM 2085
[24] = tested on: Staphylococcus aureus NCTC 8325-4
Klebsiella pneumoniae = tested on: Klebsiella pneumoniae
Staphylococcus aureus = tested on: Staphylococcus aureus
[25] = tested on: Pseudomonas aeruginosa PA-W1
[26] = tested on: Bacillus subtilis CGMCC 1.3376
[27] = tested on: Staphylococcus epidermidis CGMCC 1.4260
[28] = tested on: Staphylococcus aureus CGMCC 1.8721
[29] = tested on: Klebsiella pneumoniae CGMCC 1.1736
[30] = tested on: Escherichia coli CGMCC 1.8732
[31] = tested on: Pseudomonas aeruginosa CGMCC 1.2421
[32] = tested on: Staphylococcus aureus ATCC 25923
Trichoderma asperellum = tested on: Trichoderma asperellum
[33] = tested on: Xanthomonas campestris pv. citri
[34] = tested on: Bacillus cereus ATCC 14579
Ramulariopsis gossypii = tested on: Ramulariopsis gossypii
[35] = tested on: Fusarium oxysporum f.sp. vasinfectum
[36] = tested on: Escherichia coli ATCC 25922
Rhizoctonia solani = tested on: Rhizoctonia solani
Fusarium solani = tested on: Fusarium solani
[37] = tested on: Cryptococcus neoformans ATCC 28957
Fusarium oxysporum = tested on: Fusarium oxysporum
[38] = tested on: Pseudomonas syringae pv. tabaci
[39] = tested on: Bacillus subtilis ATCC 23857
[40] = tested on: Candida albicans ATCC 90028
[41] = tested on: Pectobacterium carotovorum

Molecule `CSCC[C@H](NC(=O)[C@@H](N)[C@@H](C)O)C(=O)N[C@@H](CO)C(=O)N[C@@H](CC(C)C)C(=O)N[C@@H](CCCN=C(N)N)C(=O)N[C@@H](Cc1ccccc1)C(=O)N[C@@H](Cc1c[nH]c2ccccc12)C(=O)N[C@@H](CCCN=C(N)N)C(=O)N[C@@H](Cc1c[nH]c2ccccc12)C(=O)N[C@@H](CCCCN)C(=O)N[C@H](C(=O)N[C@@H](CCCN=C(N)N)C(=O)O)C(C)C` [TMSLRFWRWKVR] has an MIC (Escherichia coli K-12) of no less than 38.4 µM, an MIC [1] of no less than 76.8 µM and an MIC [2] of no less than 38.4 µM. It also gave an MIC [3] of no less than 38.4 µM, an MIC [4] of no less than 76.8 µM and an MIC [5] of 19.2 µM (≈ 32 µg/mL). The MIC [6] was no less than 76.8 µM, the MIC [7] was no less than 76.8 µM and the MIC [8] was no less than 38.4 µM. It also gave an MIC (Campylobacter jejuni) of no less than 76.8 µM, an MIC [9] of no less than 38.4 µM and an MIC [10] of 76.8 µM (≈ 128 µg/mL). For the same molecule, the MIC [11] was 76.8 µM (≈ 128 µg/mL), the MIC [12] was no less than 38.4 µM and the MIC [13] was no less than 38.4 µM. For the same molecule, the MIC [14] was 9.6 µM (≈ 16 µg/mL), the MIC [15] was no less than 76.8 µM and the MIC [16] was 38.4 µM (≈ 64 µg/mL). It also gave an MIC [17] of no less than 76.8 µM, an MIC [18] of no less than 38.4 µM and an MIC (Acinetobacter baumannii) of no less than 76.8 µM. The MIC [19] was greater than 76.8 µM, the MIC (Escherichia coli) was 76.8 µM (≈ 128 µg/mL) and the MIC [20] was no less than 38.4 µM. It also gave an MIC [21] of no less than 76.8 µM.
In the case of `CC[C@H](C)[C@H](NC(=O)[C@H](CCCCN)NC(=O)[C@H](CO)NC(=O)[C@@H](NC(=O)[C@H](CC(C)C)NC(=O)[C@H](CO)NC(=O)[C@@H]1CCCN1C(=O)[C@H](CC(C)C)NC(=O)[C@H](Cc1ccccc1)NC(=O)[C@H](CC(N)=O)NC(=O)[C@H](C)NC(=O)[C@H](CC(C)C)NC(=O)[C@H](C)NC(=O)CNC(=O)[C@@H](NC(=O)[C@@H](NC(=O)[C@H](CO)NC(=O)CNC(=O)[C@H](Cc1ccccc1)NC(=O)[C@@H](N)Cc1ccccc1)[C@@H](C)O)[C@@H](C)CC)[C@@H](C)CC)C(=O)N[C@@H](CCCN=C(N)N)C(=O)N[C@@H](CC(N)=O)C(N)=O` [FFGSTIGALANFLPSLISKIRN], the MIC [22] is reported as 27 µM (≈ 64 µg/mL), the MIC (Bacillus cereus JCM 2152) is reported as 6.76 µM (≈ 16 µg/mL) and the MIC [23] is reported as 27 µM (≈ 64 µg/mL).
In the case of `CC(C)C[C@H](NC(=O)[C@H](CCCCN)NC(=O)[C@H](CCCCN)NC(=O)[C@H](CC(C)C)NC(=O)[C@H](CC(C)C)NC(=O)[C@H](CCCCN)NC(=O)[C@H](CCCCN)NC(=O)[C@H](CC(C)C)NC(=O)[C@H](CC(C)C)NC(=O)[C@H](CCCCN)NC(=O)[C@H](CCCCN)NC(=O)[C@@H](N)CC(C)C)C(N)=O` [LKKLLKKLLKKL], the MIC (Escherichia coli K-12) is reported as 7.81 µM (≈ 11.4 µg/mL), the MIC [24] is reported as 15.6 µM (≈ 22.9 µg/mL) and the MIC (Klebsiella pneumoniae) is reported as 31.3 µM (≈ 45.9 µg/mL). For the same molecule, the MIC [16] was 7.81 µM (≈ 11.4 µg/mL), the MIC (Staphylococcus aureus) was 62.5 µM (≈ 91.6 µg/mL) and the MIC [25] was 15.6 µM (≈ 22.9 µg/mL).
Work on `CC[C@H](C)[C@H](NC(=O)[C@H](CO)NC(=O)CNC(=O)[C@@H](NC(=O)[C@@H](N)CCCN=C(N)N)[C@@H](C)CC)C(=O)N[C@@H](CC(C)C)C(=O)NCC(=O)N[C@@H](C)C(=O)N[C@@H](CC(C)C)C(=O)N[C@@H](C)C(=O)N[C@@H](CCCCN)C(=O)NCC(=O)N[C@@H](CC(C)C)C(=O)N1CCC[C@H]1C(=O)N[C@H](C(=O)N[C@@H](CC(C)C)C(=O)N[C@H](C(=O)N[C@@H](CO)C(=O)N[C@@H](Cc1c[nH]c2ccccc12)C(=O)N[C@H](C(=O)N[C@@H](CCCCN)C(=O)N[C@@H](CC(N)=O)C(=O)N[C@@H](CCCN=C(N)N)C(N)=O)[C@@H](C)CC)[C@@H](C)CC)[C@@H](C)O` [RIGSILGALAKGLPTLISWIKNR] yielded an MIC [26] of 6.25 µM (≈ 15.5 µg/mL), an MIC [27] of 3.13 µM (≈ 7.75 µg/mL) and an MIC [28] of 6.25 µM (≈ 15.5 µg/mL). The MIC [29] was 12.5 µM (≈ 31 µg/mL), the MIC [30] was 12.5 µM (≈ 31 µg/mL) and the MIC [31] was 6.25 µM (≈ 15.5 µg/mL).
Molecule `CC(C)C[C@H](NC(=O)[C@H](C)NC(=O)[C@H](CC(C)C)NC(=O)[C@@H](NC(=O)[C@H](C)NC(=O)[C@H](CCCCN)NC(=O)[C@H](CC(C)C)NC(=O)[C@H](CC(C)C)NC(=O)[C@@H](NC(=O)[C@H](Cc1cnc[nH]1)NC(=O)[C@@H](NC(=O)[C@H](CCCCN)NC(=O)[C@H](CO)NC(=O)[C@H](CC(C)C)NC(=O)[C@@H](NC(=O)[C@@H](N)CCCCN)C(C)C)C(C)C)[C@@H](C)O)C(C)C)C(N)=O` [KVLSKVHTLLKAVLAL] has an MIC [32] of 4 µM (≈ 6.93 µg/mL), an MIC (Trichoderma asperellum) of 16 µM (≈ 27.7 µg/mL) and an MIC [33] of 1 µM (≈ 1.73 µg/mL). The MIC [34] was 3.33 µM (≈ 5.77 µg/mL), the MIC (Ramulariopsis gossypii) was 2 µM (≈ 3.46 µg/mL) and the MIC [35] was 4 µM (≈ 6.93 µg/mL). For the same molecule, the MIC [36] was 2 µM (≈ 3.46 µg/mL), the MIC [10] was 5.33 µM (≈ 9.23 µg/mL) and the MIC (Rhizoctonia solani) was 16 µM (≈ 27.7 µg/mL). The MIC (Fusarium solani) was 16 µM (≈ 27.7 µg/mL), the MIC [37] was 4 µM (≈ 6.93 µg/mL) and the MIC (Fusarium oxysporum) was 4 µM (≈ 6.93 µg/mL). It also gave an MIC [38] of 4 µM (≈ 6.93 µg/mL), an MIC [39] of 1 µM (≈ 1.73 µg/mL) and an MIC [40] of 8 µM (≈ 13.9 µg/mL). It also gave an MIC [41] of 1 µM (≈ 1.73 µg/mL).
